According to US20160250213A1, “FORMULATIONS OF AZAINDOLE COMPOUNDS” (priority 2013, published 2016):
Where two headings read alike, the source gives them in different places.

Assays:
[1] = test system: influenza A/Wisconsin/67/2005 (H3N2) challenge strain virus; type: in vivo, humans (healthy volunteers); conditions: for Viral Shedding by Tissue Culture, AUC, median: Days 1-7
[2] = test system: A/Hong Kong/8/68 (H3N2); experiment: microbe, parasite or virus in culture; type: cell-based; conditions: Influenza A virus, MDCK, read-out: Cell Protection Assay EC50 ± SD
[3] = test system: A/Swine/Iowa/15/30 (H1N1); experiment: microbe, parasite or virus in culture; type: cell-based; conditions: Influenza A virus, H1N1, MDCK, in Sus scrofa, read-out: Cell Protection Assay EC50 ± SD
[4] = test system: influenza A/PR/8/34 (5×10^3 TCID50); set-up: species or system mice; conditions: mouse, in vivo
[5] = test system: influenza A/Wisconsin/67/2005 (H3N2) challenge strain virus; type: in vivo, humans (healthy volunteers)
[6] = test system: Influenza A/Vietnam/1203/2004 (H5N1) virus; set-up: species or system BALB/c mice; conditions: mouse, in vivo
[7] = test system: influenza virus; set-up: species or system mice; conditions: mouse, in vivo
[8] = test system: A/Denver/1/57 (H1N1); experiment: microbe, parasite or virus in culture; type: cell-based; conditions: Influenza A virus, MDCK, read-out: Cell Protection Assay EC50 ± SD
[9] = test system: influenza A virus; type: in vivo, mice; conditions: mouse, in vivo
[10] = test system: A/South Dakota/6/2007 (H1N1); experiment: microbe, parasite or virus in culture; type: cell-based; conditions: Influenza A virus, MDCK, read-out: Cell Protection Assay EC50 ± SD
[11] = test system: influenza A/Wisconsin/67/2005 (H3N2) challenge strain virus; type: in vivo, humans (healthy volunteers); conditions: for Composite Clinical Symptom, AUC, median / Influenza like Symptom, AUC, median: Day 1 through Day 7
[12] = 100 mg QD 5 days, FA set N = 12
[13] = 400 mg QD 5 days, FA set N = 12
[14] = 900 mg Day 1, 600 mg Days 2-5, FA set N = 14
[15] = 1200 mg Day 1, 600 mg Days 2-5, FA set N = 14
[16] = pooled Compound (1) dose groups, FA set N = 52
[17] = 900 mg Day 1, 600 mg qd Days 2-5, N = 19
[18] = 1200 mg Day 1, 600 mg qd Days 2-5, N = 18
[19] = pooled Compound (1) groups, N = 72
[20] = 900 mg Day 1, 600 mg Days 2-5, N = 14
[21] = 1200 mg Day 1, 600 mg Days 2-5, N = 14
[22] = pooled Compound (1) dose groups, N = 52

O=C(O)[C@H]1C2CCC(CC2)C1Nc1nc(-c2c[nH]c3ncc(F)cc23)ncc1F (stereo partly shown) [Compound (1)]
Viral Shedding by Tissue Culture, Duration, median [1, 12]: 0.96 days | Viral Shedding by Tissue Culture, Peak, mean [1, 12]: 2.09 log10 TCID50/mL | Viral Shedding by Tissue Culture, AUC, median [1, 12]: 1.25 log10 TCID50 mL*Day | Viral Shedding by Tissue Culture, Duration, median [1, 13]: 1.60 days | Viral Shedding by Tissue Culture, Peak, mean [1, 13]: 1.73 log10 TCID50/mL | Viral Shedding by Tissue Culture, AUC, median [1, 13]: 0.70 log10 TCID50 mL*Day | Viral Shedding by Tissue Culture, Duration, median [1, 14]: 2.71 days | Viral Shedding by Tissue Culture, Peak, mean [1, 14]: 2.68 log10 TCID50/mL | Viral Shedding by Tissue Culture, AUC, median [1, 14]: 3.20 log10 TCID50 mL*Day | Viral Shedding by Tissue Culture, Duration, median [1, 15]: 0.00 days | Viral Shedding by Tissue Culture, Peak, mean [1, 15]: 1.00 log10 TCID50/mL | Viral Shedding by Tissue Culture, AUC, median [1, 15]: 0.35 log10 TCID50 mL*Day | Viral Shedding by Tissue Culture, Duration, median [1, 16]: 0.71 days | Viral Shedding by Tissue Culture, Peak, mean [1, 16]: 1.87 log10 TCID50/mL | Viral Shedding by Tissue Culture, AUC, median [1, 16]: 0.65 log10 TCID50 mL*Day | EC50 [2]: 0.6 ± 0.11 nM | EC50 [3]: 0.65 ± 0.082 nM | Survival Rate ([4]; 0.1 mg/kg): 12.5 | Survival Rate ([4]; 0.3 mg/kg): 44.4 | Survival Rate ([4]; 1 mg/kg): 100 | Viral Shedding by qRT-PCR, AUC, median [5, 12]: 6.05 log10 copies/mL*Day | Viral Shedding by qRT-PCR, Duration, median [5, 12]: 0.96 days | Viral Shedding by qRT-PCR, AUC, median [5, 13]: 4.90 log10 copies/mL*Day | Viral Shedding by qRT-PCR, Duration, median [5, 13]: 1.36 days | Viral Shedding by qRT-PCR, AUC, median [5, 14]: 10.65 log10 copies/mL*Day | Viral Shedding by qRT-PCR, Duration, median [5, 14]: 2.39 days | Viral Shedding by qRT-PCR, AUC, median [5, 15]: 0.45 log10 copies/mL*Day | Viral Shedding by qRT-PCR, Duration, median [5, 15]: 0.00 days | Viral Shedding by qRT-PCR, AUC, median [5, 16]: 3.45 log10 copies/mL*Day | Viral Shedding by qRT-PCR, Duration, median [5, 16]: 0.71 days | tolerability (100 mg to 1200/600 mg QD, five daily doses): well tolerated | Adverse event: Alanine aminotransferase increased (100 mg, N = 16): 3 (18.8) n(%) | Adverse event: Aspartate aminotransferase increased (100 mg, N = 16): 1 (6.3) n(%) | Adverse event: Blood phosphorus decreased (100 mg, N = 16): 3 (18.8) n(%) | Adverse event: Dermatitis contact (100 mg, N = 16): 3 (18.8) n(%) | Adverse event: Headache (100 mg, N = 16): 1 (6.3) n(%) | Adverse event: Influenza-like illness (100 mg, N = 16): 8 (50.0) n(%) | Adverse event: Malaise (100 mg, N = 16): 2 (12.5) n(%) | Adverse event: Nasal congestion (100 mg, N = 16): 0 n(%) | Adverse event: Nausea (100 mg, N = 16): 0 n(%) | Adverse event: Oropharylngeal pain (100 mg, N = 16): 2 (12.5) n(%) | Adverse event: Rhinorrhea (100 mg, N = 16): 0 n(%) | Adverse event: Spirometry abnormal (100 mg, N = 16): 2 (12.5) n(%) | Adverse event: Tension Headache (100 mg, N = 16): 0 n(%) | Adverse event: Alanine aminotransferase increased (400 mg, N = 19): 1 (5.3) n(%) | Adverse event: Aspartate aminotransferase increased (400 mg, N = 19): 1 (5.3) n(%) | Adverse event: Blood phosphorus decreased (400 mg, N = 19): 0 n(%) | Adverse event: Dermatitis contact (400 mg, N = 19): 0 n(%) | Adverse event: Headache (400 mg, N = 19): 4 (21.1) n(%) | Adverse event: Influenza-like illness (400 mg, N = 19): 10 (52.6) n(%) | Adverse event: Malaise (400 mg, N = 19): 0 n(%) | Adverse event: Nasal congestion (400 mg, N = 19): 0 n(%) | Adverse event: Nausea (400 mg, N = 19): 2 (10.5) n(%) | Adverse event: Oropharylngeal pain (400 mg, N = 19): 0 n(%) | Adverse event: Rhinorrhea (400 mg, N = 19): 2 (10.5) n(%) | Adverse event: Spirometry abnormal (400 mg, N = 19): 4 (21.1) n(%) | Adverse event: Tension Headache (400 mg, N = 19): 2 (10.5) n(%) | Adverse event: Alanine aminotransferase increased [17]: 0 n(%) | Adverse event: Aspartate aminotransferase increased [17]: 0 n(%) | Adverse event: Blood phosphorus decreased [17]: 6 (31.6) n(%) | Adverse event: Dermatitis contact [17]: 0 n(%) | Adverse event: Headache [17]: 0 n(%) | Adverse event: Influenza-like illness [17]: 9 (47.4) n(%) | Adverse event: Malaise [17]: 0 n(%) | Adverse event: Nasal congestion [17]: 0 n(%) | Adverse event: Nausea [17]: 1 (5.3) n(%) | Adverse event: Oropharylngeal pain [17]: 1 (5.3) n(%) | Adverse event: Rhinorrhea [17]: 0 n(%) | Adverse event: Spirometry abnormal [17]: 0 n(%) | Adverse event: Tension Headache [17]: 1 (5.3) n(%) | Adverse event: Alanine aminotransferase increased [18]: 6 (33.3) n(%) | Adverse event: Aspartate aminotransferase increased [18]: 2 (11.1) n(%) | Adverse event: Blood phosphorus decreased [18]: 4 (22.2) n(%) | Adverse event: Dermatitis contact [18]: 0 n(%) | Adverse event: Headache [18]: 2 (11.1) n(%) | Adverse event: Influenza-like illness [18]: 7 (38.9) n(%) | Adverse event: Malaise [18]: 0 n(%) | Adverse event: Nasal congestion [18]: 1 (5.6) n(%) | Adverse event: Nausea [18]: 0 n(%) | Adverse event: Oropharylngeal pain [18]: 0 n(%) | Adverse event: Rhinorrhea [18]: 1 (5.6) n(%) | Adverse event: Spirometry abnormal [18]: 4 (22.2) n(%) | Adverse event: Tension Headache [18]: 0 n(%) | incidence of decreased blood phosphorus level (Compound (1) groups): 18.1% | incidence of nasal congestion (Compound (1) groups): 1.4% | incidence of rhinorrhea (Compound (1) groups): 4.2% | Adverse event: Alanine aminotransferase increased [19]: 10 (13.9) n(%) | Adverse event: Aspartate aminotransferase increased [19]: 4 (5.6) n(%) | Adverse event: Blood phosphorus decreased [19]: 13 (18.1) n(%) | Adverse event: Dermatitis contact [19]: 3 (4.2) n(%) | Adverse event: Headache [19]: 7 (9.7) n(%) | Adverse event: Influenza-like illness [19]: 34 (47.2) n(%) | Adverse event: Malaise [19]: 2 (2.8) n(%) | Adverse event: Nasal congestion [19]: 1 (1.4) n(%) | Adverse event: Nausea [19]: 3 (4.2) n(%) | Adverse event: Oropharylngeal pain [19]: 3 (4.2) n(%) | Adverse event: Rhinorrhea [19]: 3 (4.2) n(%) | Adverse event: Spirometry abnormal [19]: 10 (13.9) n(%) | Adverse event: Tension Headache [19]: 3 (4.2) n(%) | MDD ± SD (mean day of death of mice that died on or before day 21) [6]: >21 | Mean Lung Parameters (Day 6): Virus Titer [6]: 3.75 ± 0.94 Log 10 CCID50/g | Survivors/Total [6]: 10/10 | half maximal reduction in lung titers [7]: 2-3 log | EC50 [8]: 0.42 ± 0.19 nM | survival [9]: 2/8 | EC50 [10]: 0.31 ± 0.25 nM | Composite Clinical Symptom, Duration, median ([11]; 100 mg QD 5 days, N = 12): 3.21 days | Composite Clinical Symptom, Peak, mean ([11]; 100 mg QD 5 days, N = 12): 3.17 Grade | Influenza like Symptom, Duration, median ([11]; 100 mg QD 5 days, N = 12): 3.21 days | Influenza like Symptom, Peak, mean ([11]; 100 mg QD 5 days, N = 12): 2.75 Grade | Composite Clinical Symptom, AUC, median ([11]; 100 mg QD 5 days, N = 12): 1.85 Grade*Day | Influenza like Symptom, AUC, median ([11]; 100 mg QD 5 days, N = 12): 1.85 Grade*Day | Composite Clinical Symptom, Duration, median ([11]; 400 mg QD 5 days, N = 12): 3.34 days | Composite Clinical Symptom, Peak, mean ([11]; 400 mg QD 5 days, N = 12): 2.83 Grade | Influenza like Symptom, Duration, median ([11]; 400 mg QD 5 days, N = 12): 3.34 days | Influenza like Symptom, Peak, mean ([11]; 400 mg QD 5 days, N = 12): 2.42 Grade | Composite Clinical Symptom, AUC, median ([11]; 400 mg QD 5 days, N = 12): 4.70 Grade*Day | Influenza like Symptom, AUC, median ([11]; 400 mg QD 5 days, N = 12): 3.80 Grade*Day | Composite Clinical Symptom, Duration, median [11, 20]: 2.69 days | Composite Clinical Symptom, Peak, mean [11, 20]: 3.71 Grade | Influenza like Symptom, Duration, median [11, 20]: 2.69 days | Influenza like Symptom, Peak, mean [11, 20]: 3.21 Grade | Composite Clinical Symptom, AUC, median [11, 20]: 1.75 Grade*Day | Influenza like Symptom, AUC, median [11, 20]: 1.75 Grade*Day | Composite Clinical Symptom, Duration, median [11, 21]: 1.88 days | Composite Clinical Symptom, Peak, mean [11, 21]: 1.50 Grade | Influenza like Symptom, Duration, median [11, 21]: 1.88 days | Influenza like Symptom, Peak, mean [11, 21]: 1.36 Grade | Composite Clinical Symptom, AUC, median [11, 21]: 1.95 Grade*Day | Influenza like Symptom, AUC, median [11, 21]: 1.75 Grade*Day | Composite Clinical Symptom, Duration, median [11, 22]: 2.34 days | Composite Clinical Symptom, Peak, mean [11, 22]: 2.79 Grade | Influenza like Symptom, Duration, median [11, 22]: 2.34 days | Influenza like Symptom, Peak, mean [11, 22]: 2.42 Grade | Composite Clinical Symptom, AUC, median [11, 22]: 2.15 Grade*Day | Influenza like Symptom, AUC, median [11, 22]: 2.05 Grade*Day
